Like-named read-outs stand apart in the source and are kept apart here.
System: HepG2 cells
Test: Cytotoxicity evaluation (CellTiter 96 MTS)
Type: cell-based, human
Details: read-out: IC50 HepG2
Experimental: Seven esters and their parent salicylanilides with the most robust antimicrobial activity were tested for cytotoxicity in the human hepatocellular liver carcinoma cell line HepG2 (passages 21–24; ECACC, Salisbury, UK) using a standard colorimetric method measuring a tetrazolium salt reduction (CellTiter(R) 96 AQueous One Solution Assay, Promega G3580, Madison, WI, USA).
The cells were routinely cultured in Minimum Essentials Eagle Medium (Sigma-Aldrich, Darmstadt, Germany) supplemented with 10% foetal bovine serum (PAA; Biotech, Prague, Czech Republic), 1% of L-glutamine solution (Sigma-Aldrich), and non-essential amino acids solution (Sigma-Aldrich) in a humidified atmosphere containing 5% CO2 at 37 °C. For subculturing, the cells were harvested after trypsin/EDTA (Sigma-Aldrich) treatment at 37 °C. The cells treated with the tested substances were used as experimental groups. Untreated HepG2 cells were used as control groups.
The cells were seeded in density 1 × 10^4 cells per well in a 96-well plate with microscopic control. Next day, the cells were treated with each of the tested substances. […] The most of the tested compounds were prepared in incubation concentrations of 0.01–20 µM in triplicates. 4-(Trifluoromethyl)benzoic acid was applied in the concentrations of 10–4,000 µM in triplicates. The following types of controls were included: determination of 100% viability and 0% viability (the cells treated by 10% DMSO), no cell control and vehiculum controls. These checking samples were prepared in triplicates.
The treated cells were incubated together with controls at 37 °C for 24 h in 5% CO2 atmosphere. After this time reagent from the kit CellTiter 96 AQueous One Solution Cell Proliferation Assay was added. The CellTiter 96 assay is based on the reduction of tetrazolium salt MTS [3-(4,5-dimethylthiazol-2-yl)-5-(3-carboxymethoxyphenyl)-2-(4-sulfophenyl)-2H-tetrazolium] to water-soluble formazan dye by metabolically active cells. The reduction of the reagent is attributed to availability of NADH or NADPH. The decline in levels of these metabolically important compounds in the cell causes that the production of formazan is reduced. The tested plate was incubated for 2 h at 37 °C and 5% CO2 and after this time, the absorbance was recorded at 490 nm using a 96-well plate reader (TECAN, Infinite M200, Grödig, Austria).
The results were expressed as inhibitory concentration which is necessary to inhibit cell viability to 50% from the maximal (control) viability (IC50). A standard toxicological parameter IC50 was calculated in each of the tested substances using GraphPad Prism software (version 5.02; GraphPad Software Inc., San Diego, CA, USA).

SMILES	IC50 (24 h, cytotoxicity) [nM]	also measured
O=C(Nc1ccc(Cl)c(Cl)c1)c1ccc(Cl)cc1O [SAL-2]	1800	–
O=C(Nc1cccc(Br)c1)c1cc(Cl)ccc1O [SAL-3]	1540	–
O=C(Nc1ccc(Br)cc1)c1ccc(Cl)cc1O [SAL-4]	1980	–
O=C(Nc1ccc(C(F)(F)F)cc1)c1cc(Cl)ccc1O [SAL-5, 5-chloro-2-hydroxy-N-[4-(trifluoromethyl)phenyl]benzamide]	–	IC50 (Homo sapiens, HepG2, 24 h, cytotoxicity): 360 nM
O=C(Nc1ccc(C(F)(F)F)cc1)c1ccc(Cl)cc1O [SAL-6]	690	–
O=C(Nc1ccc(C(F)(F)F)cc1)c1cc(Br)ccc1O [SAL-7, 5-Bromo-2-hydroxy-N-[4-(trifluoromethyl)phenyl]benzamide]	–	IC50 (Homo sapiens, HepG2, 24 h): 1670 nM
